Experimental findings from patent publication US5284871A, “Oxygen removal” (priority 1990, dated 1994) are described below.

Assay [1] relates to E. coli. In words: Growth of E. coli in nutrient broth with and without sodium ascorbate and metals. The arrangement: Growth of E. coli in nutrient broth: unit not given here. As to conditions: 25° C.; for Growth of E. coli in nutrient broth: sodium ascorbate 0.2%, metal 88 μM. The assay is classed as cell-based. The protocol: (§1) To determine the antimicrobial effects of Oxysorb, 10 ml of broth in 16×100 screw-capped tubes were inoculated with diluted, overnight cultures to achieve an initial population of 100 to 1000 cells/ml. Nutrient broth was used for E. coli and Pseudomonas fluorescens; fluid thioglycollate medium was used for Clostridium sporogenes. Following inoculation, sodium ascorbate was added at a level of 0.2%, then 88 μM metal salt (copper gluconate, cobalt chloride, or ferric chloride). Ascorbate, copper, cobalt, and iron solutions were prepared and filter sterilized just prior to use. Tubes were incubated at 25° C. with caps tightened, unless they were placed in anaerobic (Gas Pak) jars. Anaerobically incubated tubes had loose caps to allow for generation of an anaerobic environment in the tube headspace. Samples from two individual tubes were plated periodically.

In assay [2] the test system is Pseudomonas fluorescens. In words: Growth of Pseudomonas fluorescens in nutrient broth with and without sodium ascorbate and metals. It is filed as cell-based. As to conditions: 25° C.; for Growth of Pseudomonas fluorescens in nutrient broth: sodium ascorbate 0.2%, metal 88 μM; for effect on the growth of Pseudomonas fluorescens: nutrient broth. The protocol:
as §1

The nature of assay [3]: Dissolved oxygen consumption measured with a Clark oxygen electrode. As to conditions: for oxygen utilization by one component alone / effect of protein on the rate of oxygen removal by Oxysorb: pH 7.4; for effect of chelating agent on oxygen removal by Oxysorb: 1 mM chelating agent, 100 μM copper gluconate, 10 mM sodium ascorbate; for reducing agent in copper-mediated oxygen removal: 1 mM reducing agent, 100 micromolar copper gluconate; for effect of protein on the rate of oxygen removal by Oxysorb: 0.2% ascorbic acid, 40 ppm copper gluconate, with and without 2 mM glycine. It is filed as physicochemical. The protocol:
The oxygen tension was measured in 1 mM sodium ascorbate and 50 mM Tris, pH 7.4 at 25° C. using a Clark oxygen electrode.
Initial rates were measured in 50 micromolar copper sulfate, 1 mM sodium ascorbate, and 50 mM Tris, pH 7.4, at 25° C.
The initial rates were determined in 50 micromolar copper sulfate, 1 mM sodium ascorbate, and 50 mM Tris, pH 7.4 at 10° C., 15° C., 20° C., 25° C., 30° C., 35° C., and 40° C.
The rate of O2 consumption at 25° C. in 10 mM sodium ascorbate, 100 micromolar copper gluconate, 50 mM Tris, pH 7.4, and 1 mM chelating agent was monitored using a Clark electrode.
The rate of O2 consumption at 25° C. in 10 mM sodium ascorbate, 50 mM Tris, pH 7.4, and 100 micromolar transition metal was monitored using a Clark electrode.
The rate of O2 consumption at 25° C. in 100 micromolar copper gluconate, 50 mM Tris, pH 7.4, and 1 mM reducing agent was monitored using a Clark electrode.
Increasing amounts of ovalbumin in the absence and presence of glycine were added to the Oxysorb system and the rate of O2 consumption at 25° C. was monitored using a Clark electrode.
The chelating agents used for this experiment were glycine, L-histidine, phytic acid, and EDTA. Purified water and Tris were dispensed into the vial, and then 1 mM chelating agent and 100 μM copper gluconate were added. Upon stabilization of the oxygen electrode, the ascorbic acid was introduced and the reaction quickly took place.
Another experiment was designed to substitute a variety of transition metals and reducing agents in place of copper and ascorbate. The transition metals were ferric chloride, manganese sulfate, cobalt chloride, and chromium chloride. The final concentration of these metals was 100 micromolar in 10 mM ascorbic acid and 50 mM Tris buffer, pH 7.4. To start the reaction, the metal was added to these solution, and the removal of dissolved oxygen was monitored using a Clark electrode.
The reducing agents substituted for ascorbic acid were sodium sulfite, cysteine, and catechol. The order of addition was purified water, Tris, and 1 mM reducing agent. When the electrode stabilized, the copper gluconate was added.
Experiments were conducted to determine the effect of protein on the reaction of the Oxysorb system. Using a Clark electrode, the oxygen consumption was measured in solutions containing 50 mM Tris, pH 7.4, 0.2% ascorbic acid, 40 ppm copper gluconate, variable amounts of ovalbumin, with and without 2 mM glycine. The order of addition was water, Tris, glycine, copper gluconate, ovalbumin, and ascorbic acid.

Assay [4] deals with polyphenol oxidase activity in potatoes. Description: Browning of pureed potato. As to conditions: refrigerated, seven days.
Source text: A control of water and potato was pureed in a blender and placed into a screw top jar, filled to overflowing to minimize headspace. The same was done to a sample of potato and 40 ppm copper gluconate and 0.1% ascorbic acid in water. The jars were refrigerated and inverted frequently to disperse any foam formed.
Assay [5] relates to microorganisms in potato water. In words: Microbiological evaluation of potato water. As to conditions: room temperature. The protocol:
Another experiment was conducted to determined if the system of the present invention could delay or prevent textural degradation of potatoes stored in water. Raw potatoes were peeled, cubed, and immersed in water and in solutions of 40 ppm copper gluconate and 0.1% or 0.5% ascorbic acid. The samples were kept in uncovered glass mason jars at room temperature.

Assay [6] can be described thus: Oxidation of ascorbic acid to dehydroascorbic acid, monitored spectrophotometrically. The assay is classed as physicochemical. As to conditions: 50 micromolar ascorbic acid, 1 micromolar Cu^2+, pH 7.4, 25° C.; 1000 U/ml catalase, 25 U/ml SOD. The protocol: The rate of oxidation at 25° C. in 50 mM Tris, pH 7.4, was monitored spectrophotometrically. […] The rate of oxidation at 25° C. in 50 mM Tris, pH 7.4, was monitored spectrophotometrically. […] Both reactions were carried out at 25° C. in 50 mM Tris, pH 7.4.

For assay [7], the system named is yeast. In words: Yeast growth at 25° C. with the oxygen scavenging system. As to conditions: 4-day period, 0.004% copper gluconate, 0.2% sodium ascorbate. It is filed as cell-based.
[8] abbreviates: anaerobic incubation (Gas Pak jar).

As for `O=C1O[C@H]([C@@H](O)CO)C([O-])=C1O.[Na+]` [Ascorbate, sodium ascorbate], the “Growth of E. coli in nutrient broth” value in assay [1] (Time 0 days) is 350; in assay [1] (Time 0.25 days) it was 4600; in assay [1] (Time 1 day) it was 1.6 × 10^8; in assay [1] (Time 2 days), 4.6 × 10^8; in assay [1] (Time 5 days), 3.8 × 10^8. Moreover, the “effect on the growth of E. coli” value in assay [1] (setting [8]) was “slightly reduced the maximum population”; in assay [1] (sealed tubes, nutrient broth), “little effect”. Further, the “Growth of Pseudomonas fluorescens in nutrient broth” value in assay [2] (Time 0 days) was 160; in assay [2] (Time 0.25 days), 170; in assay [2] (Time 1 day) it was 4.7 × 10^7; in assay [2] (Time 4 days), 7.2 × 10^8; in assay [2] (Time 6 days) it was 2.7 × 10^8. In assay [3], the “oxygen utilization by one component alone” value is on record as “No oxygen utilization”.

Regarding `[Cl][Co][Cl]` [Co^2+, cobalt chloride], the “Growth of E. coli in nutrient broth” value is on record as 430 in assay [1] (Time 0 days); 690 in assay [1] (Time 0.25 days); 8.1 × 10^5 in assay [1] (Time 1 day); 2.2 × 10^6 in assay [1] (Time 2 days); 4.5 × 10^8 in assay [1] (Time 5 days). Further, in assay [1] (sealed tubes, nutrient broth), the “effect on the growth of E. coli” value was “Growth was slowed but not stopped”. For the same molecule, the “Growth of Pseudomonas fluorescens in nutrient broth” value in assay [2] (Time 0 days) is reported as 150; in assay [2] (Time 0.25 days), 65; in assay [2] (Time 1 day) it was 1.9 × 10^6; in assay [2] (Time 4 days), 5.6 × 10^8; in assay [2] (Time 6 days), 5.5 × 10^7. Also, in assay [2], the “effect on the growth of Pseudomonas fluorescens” value is reported as “slowed the growth”.

`O=C(O)CN(CCN(CC(=O)O)CC(=O)O)CC(=O)O` [EDTA]: the “effect of chelating agent on oxygen removal by Oxysorb” value (“effect of chelating agent” for short) in assay [3] (pH 7.4, 25° C.) is listed as “almost completely inhibited”.

Regarding `[Cl][Fe]([Cl])[Cl]` [Fe^3+, ferric chloride], the “Growth of E. coli in nutrient broth” value in assay [1] (Time 0 days) was 420; in assay [1] (Time 0.25 days), 6400; in assay [1] (Time 1 day), 2.1 × 10^8; in assay [1] (Time 2 days), 3.4 × 10^8; in assay [1] (Time 5 days) it was 1.5 × 10^8. Moreover, the “effect on the growth of E. coli” value in assay [1] (sealed tubes, nutrient broth) is listed as “no effect”. Also, the “Growth of Pseudomonas fluorescens in nutrient broth” value is on record as 130 in assay [2] (Time 0 days); 160 in assay [2] (Time 0.25 days); 6.2 × 10^7 in assay [2] (Time 1 day); 8.1 × 10^7 in assay [2] (Time 4 days); 5.1 × 10^7 in assay [2] (Time 6 days). For the same molecule, the “effect on the growth of Pseudomonas fluorescens” value in assay [2] is “did not differ from the control”.

Turning to `N[C@@H](Cc1c[nH]cn1)C(=O)O` [Histidine, L-histidine], the “effect of chelating agent” value in assay [3] (pH 7.4, 25° C.) is on record as “some inhibition”.

Regarding `O=P(O)(O)O[C@H]1[C@H](OP(=O)(O)O)[C@@H](OP(=O)(O)O)[C@H](OP(=O)(O)O)[C@@H](OP(=O)(O)O)[C@H]1OP(=O)(O)O` [Phytic acid, phytic acid], the “effect of chelating agent” value in assay [3] (pH 7.4, 25° C.) is “slightly slower than the control”.

As for `O=C1O[C@H]([C@@H](O)CO)C(O)=C1O` [ascorbic acid], in assay [3] (pH 7.4, 25° C.), the “reducing agent in copper-mediated oxygen removal” value (from here on “reducing agent”) was “most efficient reducing agent”.

Turning to `O=S(=O)([O-])[O-].[Cu+2]` [copper sulfate], in assay [3], the “oxygen utilization by one component alone” value is “No oxygen utilization”.

Turning to `N[C@@H](CS)C(=O)O` [cysteine], the “reducing agent” value in assay [3] (pH 7.4, 25° C.) is “more reactive than sulfite”.

On to `NCC(=O)O` [glycine], for which the “effect of chelating agent” value in assay [3] (pH 7.4, 25° C.) is on record as “faster than that of the control”. The “effect of protein on the rate of oxygen removal by Oxysorb” value in assay [3] is “diminished this protein effect”.

With `CC(O)CO` (centres unmarked) [propylene glycol], in assay [3] (50 micromolar copper sulfate, 1 mM sodium ascorbate, pH 7.4, 25° C.), the “effect of freezing point depressant on the rate of oxygen removal” value was “not affected significantly”.

As to `O=S([O-])O.[Na+]` [sodium bisulfite], the “browning of pureed potato” value in assay [4] is reported as “this browning does not occur”. Besides, the “effect on chemical and microbiological events in potatoes stored in water” value in assay [5] is “no effect at all”.

As to `O=S([O-])[O-].[Na+].[Na+]` [sulfite, sodium sulfite], the “reducing agent” value in assay [3] (pH 7.4, 25° C.) is “more reactive than catechol”.

catalase: in assay [6], the “effect on oxidation of ascorbic acid in the presence of Cu^2+” value is listed as “inhibition”.

Regarding copper gluconate [Cu^2+], the “Growth of E. coli in nutrient broth” value in assay [1] (Time 0 days) is recorded as 510; in assay [1] (Time 0.25 days), 3100; in assay [1] (Time 1 day), 4.7 × 10^7; in assay [1] (Time 2 days), 4.8 × 10^7; in assay [1] (Time 5 days) it was 7.3 × 10^6. The “effect on the growth of E. coli” value in assay [1] (setting [8]) is “further suppressed growth”; in assay [1] (sealed tubes, nutrient broth) it was “reduced both the growth rate and the maximum population”. Besides, the “Growth of Pseudomonas fluorescens in nutrient broth” value is 140 in assay [2] (Time 0 days), 180 in assay [2] (Time 0.25 days), 9.6 × 10^7 in assay [2] (Time 1 day) and 1.6 × 10^8 in assay [2] (Time 6 days). Besides, the “effect on yeast growth” value in assay [7] is “no toxicity”. Besides, in assay [3] (100 micromolar metal, 10 mM ascorbic acid, 50 mM Tris pH 7.4), the “transition metal as catalyst of oxygen removal” value is “best catalyst”.

Turning to superoxide dismutase, the “effect on oxidation of ascorbic acid in the presence of Cu^2+” value in assay [6] is “substantial acceleration”.

B1: ovalbumin: protein added to the Oxysorb system; binds copper with high affinity (protein, UniProt P01012 2-386, looked up)
Ovalbumin: GSIGAASMEFCFDVFKELKVHHANENIFYCPIAIMSALAMVYLGAKDSTRTQINKVVRFDKLPGFGDSIEAQCGTSVNVHSSLRDILNQITKPNDVYSFSLASRLYAEERYPILPEYLQCVKELYRGGLEPINFQTAADQARELINSWVESQTNGIIRNVLQPSSVDSQTAMVLVNAIVFKGLWEKAFKDEDTQAMPFRVTEQESKPVQMMYQIGLFRVASMASEKMKILELPFASGTMSMLVLLPDEVSGLEQLESIINFEKLTEWTSSNVMEERKIKVYLPRMKMEEKYNLTSVLMAMGITDVFSSSANLSGISSAESLKISQAVHAAHAEINEAGREVVGSAEAGVDAASVSEEFRADHPFLFCIKHIATNAVLFFGRCVSP
As for B1, the “effect of protein on the rate of oxygen removal by Oxysorb” value in assay [3] is “greatly decreases the rate of oxygen removal”.
